Source: EP0295827A2, “Use of 24,25-dihydroxy-cholecalciferol in mending bone fractures” (priority 1987, dated 1988)

Test system: rabbits suffering fracture
Assay: Fibula fracture model: strength test (bending test)
Type: in vivo, Japanese white house rabbits
Conditions: 100 µg/kg oral, average value ± standard deviation
Source text: The right fibulae of mature house rabbits (Japanese white house rabbits having a weight of about 3 kg) were broken at the central portions under anesthetic with a dental hand drill. Each of the house rabbits was kept in a separate cage and was allowed to take an ordinary solid food (CR-1, produced by Nippon Clare Corp.) and city water freely. 24R,25-(OH)₂-D₃ and 24S,25-(OH)₂-D₃ were dispersed in an aqueous 0.5% CMC solution and orally administered to the house rabbits through a rubber catheter. The experimental groups were as follows:
The respective medicines or aqueous 0.5% CMC solution was administered to these house rabbits for 3 weeks or 6 weeks after the bones had been broken. Thereafter, the house rabbits were killed and the fibulae were taken out for X-ray inspection and a strength test (bending test by DDV-VMF produced by Toyo Baldwin Co., Ltd.).

`C=C1CC[C@H](O)C/C1=C/C=C1\CCC[C@]2(C)[C@@H]([C@H](C)CC[C@H](O)C(C)(C)O)CC[C@@H]12` [24S,25-(OH)₂-D₃] was tested, and the Bending strength (3 weeks after) was 15 N/mm and the Bending strength (6 weeks after) was 81 ± 37 N/mm.
